According to article PMC8198750, “Synthesis of Novel Halogenated Heterocycles Based on o-Phenylenediamine and Their Interactions with the Catalytic Subunit of Protein Kinase CK2” (Molecules, 2021):
Read-outs that look alike come from different tables or passages of the source.

Legend:
[1] = RP-HPLC chromatographic hydrophobicity index; assay type: physicochemical; details: C18, 2:1 methanol:20 mM aqueous ammonium formate pH 8; τ = (Tret − T0)/T0
Procedure: RP-HPLC method, a fast and efficient alternative for standard logD determination in octan-1-ol/water system, was used to assess the hydrophobicity of all synthesized compounds. This method has been successfully used in our laboratory for halogenated benzotriazole derivatives, including the evaluation of the effect of hydrophobicity on their binding to the catalytic subunit of protein kinase CK2 [24, 43].
Chromatographic hydrophobicity index (log(τ)) was determined with the reverse phase HPLC (RP-HPLC). Column: Nova-pak® C18 4 μm, 4.6 × 250 mm. Eluent: 2:1 methanol: 20 mM aqueous ammonium formate (pH = 8) (v/v). Flow: 0.7 mL/min. Detector wavelength: 280 nm. The individual retention times (Tret) were converted to a hydrophobicity scale according to the formula τ = (Tret − T0)/T0. where the retention time of unretained solvent (T0) was estimated to 300 s.

hCK2α [2] = biological target: T1, hCK2α (Homo sapiens, UniProt P68400); experiment: nanoDSF thermal shift assay (low-volume differential scanning fluorimetry); assay type: binding
T1 construct: made in house
T1 sequence (P68400 whole entry): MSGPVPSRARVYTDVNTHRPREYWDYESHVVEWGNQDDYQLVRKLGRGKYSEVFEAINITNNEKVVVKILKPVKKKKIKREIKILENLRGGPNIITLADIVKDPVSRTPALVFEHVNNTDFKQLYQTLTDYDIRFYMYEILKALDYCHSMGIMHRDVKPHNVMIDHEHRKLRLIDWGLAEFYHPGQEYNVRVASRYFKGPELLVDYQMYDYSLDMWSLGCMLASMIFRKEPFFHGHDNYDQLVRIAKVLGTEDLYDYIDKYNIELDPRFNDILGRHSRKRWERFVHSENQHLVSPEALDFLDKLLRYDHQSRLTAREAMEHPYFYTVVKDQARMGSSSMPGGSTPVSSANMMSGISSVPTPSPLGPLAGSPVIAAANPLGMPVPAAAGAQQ
Procedure: Binding affinities of the newly synthesized compounds towards hCK2α were assessed with the low-volume differential scanning fluorimetry (nanoDSF). The shift of the temperature of thermal denaturation in the presence of 10-fold excess of a particular ligand relative to the apo form of hCK2α (ΔTm) can be used as a semi-qualitative measure of the binding affinity or inhibitory activity.
hCK2α was expressed and purified according to the method described previously. Thermal stability of 1:10 protein–ligand complexes was monitored on Prometheus (Nanotemper Technologies, München, Germany) using PR-C002 Prometheus NT.48 Standard Capillaries using temperature ramp of 20 to 80 °C with 1 °C/min heating rate. Temperature-induced variation in ratio fluorescence intensity at 330 and 350 nm was globally analyzed using the procedure described before. All experiments were performed in 25 mM Tris–HCl (pH 8, 0.5 M NaCl) with 2% (v/v) DMSO. Protein was kept in constant 2.5 μM concentration.

CK2 = details: cited from earlier work
[3] = tested on: epidermoid carcinoma A-431; experiment: MTT cell viability assay, A-431; assay type: cell-based; details: Homo sapiens, 72 h
Source text: (§1) The following human cell lines were used in this study: (i) epidermoid carcinoma A-431 (ATCC® CRL-1555), (ii) colorectal carcinoma HCT116 (ATCC® CCL-247), (iii) colorectal carcinoma HCT116p53^−/−, and (iv) normal fibroblasts BJ (ATCC® CRL-2522). The HCT116p53^−/− cell line was a kind gift from professor Bert Vogelstein (John Hopkin’s University, Baltimore, MD, USA). The remaining cell lines were purchased from ATCC (Manassas, VA, USA) or Sigma Aldrich by Merck (Darmstadt, Germany).
(§2) Cells were cultured in Dulbecco’s modified Eagle’s or Roswell Park Memorial Institute (RPMI)-1640 medium supplemented with 10% or 15% fetal bovine serum (Gibco by Thermo Fisher Scientific, Waltham, MA, USA) under standard culture conditions (37 °C, 5% CO2) in a humidified incubator with atmospheric oxygen.
(§3) The viability of cells was assayed by measuring the conversion of MTT (3-(4,5-dimethylthiazol-2-yl)-2,5-diphenyltetrazolium bromide) to the formazan (the rate of this reaction is proportional to the number of surviving cells). Cells were seeded in a 96-well plate at a density of 1500–2500 cells per well, 24 h before treatment. Treatment with tested compounds and cisplatin (0.25–160 µM) was performed for 72 h. MTT stock solution (Sigma-Aldrich) was added at the final concentration 0.5 mg/mL. After 2 h of incubation at 37 °C, water-insoluble formazan was dissolved in a lysis buffer containing 20% SDS, 50% DMF, 2.5% hydrochloric acid, and 2.5% acetic acid. Optical densities were measured at 570 nm using a scanning multi-well spectrophotometer ([…] Detection Platform; Beckman Coulter, Brea, CA, USA).

hCK2α [4] = biological target: T1, hCK2α; experiment: Inhibitory activity against human CK2α (ADP-Glo kinase assay); assay type: biochemical; details: inhibitor 1 nM–1 mM, triplicate
Procedure: The inhibitory effect of 8 selected compounds was monitored based on the luminescence measured with the SpectraMax iD3 Multi-Mode Microplate Reader (Molecular Devices, San Jose, CA, USA), using the previously described method with the aid of ADP-Glo kinase assay (Promega, Walldorf, Germany). Inhibitor concentration varied in the range of 1 nM–1 mM (see Supplementary Figure S38). Each experiment was repeated in triplicate and IC50 values were further estimated globally using the sigmoidal dose-response equation implemented in Origin 9.4 package (www.originlab.com, upgraded 20.07.27).

[5] = tested on: colorectal carcinoma HCT116; experiment: MTT cell viability assay, HCT116; assay type: cell-based; details: Homo sapiens, HCT-116, 72 h, read-out: IC50 HTC116
Source text: as §1, §2, §3

[6] = tested on: colorectal carcinoma HCT116p53−/−; experiment: MTT cell viability assay, HCT116p53−/−; assay type: cell-based; details: Homo sapiens, 72 h
Source text: as §1, §2, §3

normal fibroblasts BJ = experiment: MTT cell viability assay, BJ; assay type: cell-based, human; details: for IC50: Homo sapiens, Fibroblast, MTT, 72 h
Source text: as §1, §2, §3

[7] = 10-fold excess of ligand (1:10 protein–ligand), 2.5 μM protein, relative to apo hCK2α, 2% DMSO, pH 8
[8] = read-out: IC50 against CK2 / inhibitory activity
[9] = 10-fold excess of ligand (1:10 protein–ligand), 2.5 μM protein, relative to apo hCK2α, 2% DMSO, pH 8, read-out: ΔTm

Row | Compound | log(τ) HPLC-derived hydrophobicity index [1] | ΔTm at 25 µM (hCK2α [2]; [9]) [°C] | other results
1 | 6,7-dichloroquinoxaline-1,3-diol [Compound 7c] | −0.227 | – | ΔTm (hCK2α [2]; [7]): 1.2 ± 0.1 °C
2 | O=c1[nH]c2c(Br)c(Br)c(Br)c(Br)c2[nH]1 [4,5,6,7-tetrabromo-1H-benzo[d]imidazol-2(3H)-one] | – | – | Ki (CK2): 0.2 µM; IC50 (CK2; read-out: IC50 CK2): 0.39 µM
3 | FC(F)(F)c1nc2c(Br)c(Br)c(Br)cc2[nH]1 [4,5,6-tribrominated] | – | – | IC50 (CK2; [8]): 1.2 µM
4 | Nc1ccccc1N [Compound 1a, benzo-1,2-diamine] | −0.651 | – | ΔTm at 25 µM (hCK2α [2]; pH 8, read-out: ΔTm): -0.1 ± 0.1 °C
5 | Nc1cc(F)c(F)cc1N [Compound 1b] | −0.591 | -0.1 ± 0.1 | –
6 | Nc1cc(Cl)c(Cl)cc1N [Compound 1c] | −0.298 | 0.1 ± 0.1 | –
7 | Nc1cc(Br)c(Br)cc1N [Compound 1d] | −0.208 | 0.2 ± 0.1 | –
8 | Nc1cc(I)c(I)cc1N [Compound 1e, 4,5-diiodobenzene-1,2-diamine] | −0.093 | 1.7 ± 0.1 | –
9 | c1ccc2nsnc2c1 [Compound 2a, 2,1,3-benzothiadiazole] | 0.009 | 0 | –
10 | Fc1cc2nsnc2cc1F [Compound 2b, 5,6-difluoro-2,1,3-benzothiadiazole] | 0.169 | -0.3 ± 0.1 | –
11 | Clc1cc2nsnc2cc1Cl [Compound 2c, 5,6-dichloro-2,1,3-benzothiadiazole] | 0.179 | 0.2 ± 0.1 | –
12 | Brc1cc2nsnc2cc1Br [Compound 2d, 5,6-dibromo-2,1,3-benzothiadiazole] | 0.461 | 0.2 ± 0.1 | –
13 | Ic1cc2nsnc2cc1I [Compound 2e, 5,6-diiodo-2,1,3-benzothiadiazole] | 0.468 | 0.2 ± 0.1 | –
14 | FC(F)(F)c1nc2ccccc2[nH]1 [Compound 3a, 2-trifluoromethylo-1H-benzimidazole] | −0.270 | – | ΔTm at 25 µM (hCK2α [2]; pH 8, read-out: ΔTm): 0.4 ± 0.1 °C
15 | Fc1cc2nc(C(F)(F)F)[nH]c2cc1F [Compound 3b, 5,6-difluoro-2-trifluoromethylo-1H-benzimidazole] | −0.095 | 0.8 ± 0.1 | –
16 | FC(F)(F)c1nc2cc(Cl)c(Cl)cc2[nH]1 [Compound 3c, 5,6-dichlorlo-2-trifluoromethylo-1H-benzimidazole] | 0.234 | 1.2 ± 0.1 | –
17 | FC(F)(F)c1nc2cc(I)c(I)cc2[nH]1 [Compound 3e, 5,6-diiodo-2-trifluoromethylo-1H-benzimidazole] | 0.409 | 4.3 ± 0.1 | IC50 [3]: 7 ± 1 µM; IC50 (hCK2α [4]): 7 ± 4 µM; IC50 [5]: 6 ± 1 µM; IC50 [6]: 6 ± 1 µM; IC50 (normal fibroblasts BJ): 55 ± 5 µM; selectivity index (normal fibroblasts BJ; relative to BJ fibroblasts): ~ 10
18 | FC(F)(F)c1nc2c(Br)c(Br)c(Br)c(Br)c2[nH]1 [tetrabrominated] | – | – | IC50 (CK2; [8]): 0.6 µM
19 | quinoxaline-1,3-diol [Compound 7a] | −0.699 | – | ΔTm (hCK2α [2]; [7]): 0.1 ± 0.1 °C

Now from value to compound, other results behind:

Row | log(τ) HPLC-derived hydrophobicity index [1] | ΔTm at 25 µM (hCK2α [2]; [9]) [°C] | Compound | other results
20 | −0.548 | – | 6,7-difluoroquinoxaline-1,3-diol [Compound 7b] | ΔTm (hCK2α [2]; [7]): 0.2 ± 0.1 °C
21 | −0.579 | 0.4 ± 0.1 | OCc1nc2ccccc2[nH]1 [Compound 4a, 2-hydroxymethylo-1H-benzimidazole] | –
22 | −0.079 | 0.7 ± 0.1 | OCc1nc2cc(Cl)c(Cl)cc2[nH]1 [Compound 4c, 5,6-dichloro-2-hydroxymethylo-1H-benzimidazole] | –
23 | 0.010 | 1.9 ± 0.1 | OCc1nc2cc(Br)c(Br)cc2[nH]1 [Compound 4d, 5,6-dibromo-2-hydroxymethylo-1H-benzimidazole] | IC50 [3]: 45 ± 5 µM; IC50 (hCK2α [4]): > 1000 µM; IC50 [5]: 21 ± 1 µM; IC50 [6]: 28 ± 3 µM; IC50 (normal fibroblasts BJ): 145 ± 15 µM
24 | 0.088 | 3.7 ± 0.1 | OCc1nc2cc(I)c(I)cc2[nH]1 [Compound 4e, 5,6-diiodo-2-hydroxymethylo-1H-benzimidazole] | IC50 [3]: 39 ± 10 µM; IC50 (hCK2α [4]): 25 ± 5 µM; IC50 [5]: 20 ± 2 µM; IC50 [6]: 23 ± 2 µM; IC50 (normal fibroblasts BJ): 15 ± 2 µM
25 | −0.591 | 0.8 ± 0.1 | O=c1[nH]c2ccccc2[nH]1 [Compound 5a, 1H-benzo[d]imidazol-2(3H)-one] | –
26 | −0.084 | 0.8 ± 0.1 | O=c1[nH]c2cc(Cl)c(Cl)cc2[nH]1 [Compound 5c, 5,6-dichloro-1H-benzo[d]imidazol-2(3H)-one] | –
27 | 0.003 | 1.8 ± 0.1 | O=c1[nH]c2cc(Br)c(Br)cc2[nH]1 [Compound 5d, 5,6-dibromo-1H-benzo[d]imidazol-2(3H)-one] | IC50 [3]: 180 ± 40 µM; IC50 (hCK2α [4]): > 1000 µM; IC50 [5]: 18 ± 3 µM; IC50 [6]: 22 ± 3 µM; IC50 (normal fibroblasts BJ): 40 ± 5 µM
28 | 0.082 | 2.4 ± 0.1 | O=c1[nH]c2cc(I)c(I)cc2[nH]1 [Compound 5e, 5,6-diiodo-1H-benzo[d]imidazol-2(3H)-one] | IC50 (hCK2α [4]): 13 ± 2 µM
29 | −0.295 | -0.1 ± 0.1 | c1ccc2nccnc2c1 [Compound 6a, quinoxaline] | –
30 | 0.495 | 0.1 ± 0.1 | Clc1cc2nccnc2cc1Cl [Compound 6c, 6,7-dichloroquinoxaline] | –
31 | 0.588 | 0.4 ± 0.1 | Brc1cc2nccnc2cc1Br [Compound 6d, 6,7-dibromoquinoxaline] | –
32 | 0.618 | 0.4 ± 0.1 | Ic1cc2nccnc2cc1I [Compound 6e, 6,7-diiodoquinoxaline] | –
33 | −0.174 | 2.7 ± 0.1 | Oc1nc2cc(Br)c(Br)cc2nc1O [Compound 7d] | IC50 [3]: 385 ± 82 µM; IC50 (hCK2α [4]): 13 ± 4 µM; IC50 [5]: 195 ± 35 µM; IC50 [6]: 850 ± 300 µM; IC50 (normal fibroblasts BJ): 16 ± 2 µM
